Activity calls are given as the source filed them.
Experiments:
Type in all cases: functional, cell-based
HeLa = assay: Cytotoxicity against human HeLa cells at 50 uM after 90 mins by MTS assay
A549 = assay: Cytotoxicity against human A549 cells at 50 uM after 90 mins by MTS assay
MCF7 = assay: Cytotoxicity against human MCF7 cells at 50 uM after 90 mins by MTS assay
HCT-116 = assay: Cytotoxicity against human HCT116 cells at 50 uM after 90 mins by MTS assay
SW480 = assay: Cytotoxicity against human SW480 cells at 50 uM after 90 mins by MTS assay
T-24 = assay: Cytotoxicity against human T24 cells at 50 uM after 90 mins by MTS assay

Measured: Activity

COc1cc2c3c4c(c(O)cc(C)c14)C(=O)O[C@@H]3[C@@H]1C[C@@H](C)O[C@]1(C[C@H]1CCC(=O)O1)O2
inactive: all assays above

From ChEMBL document CHEMBL3588825, “Identification of Oxaphenalenone Ketals from the Ascomycete Fungus Neonectria sp” (J Nat Prod, 2015)
